IC50 data for 23 compounds are collected here from BindingDB's records for doi:10.1016/j.ejmech.2012.05.016 (Piramal Healthcare, 2012).

Usually IC50 stands for the midpoint of a concentration-inhibition curve.

This assay has as its target DGAT1 (Homo sapiens). As to the kind of experiment: Inhibition of human DGAT1 assessed as conversion of [14C]-oleoyl-CoA to [14C]-triglyceride after 10 mins by scintillation counting.

As to `CC(C)[C@H](NC(=O)c1cc(-c2ccc(NC(=O)Nc3ccccc3F)cc2)no1)C(=O)O`, the IC50 came out at 141 nM.
Take `CC(C)[C@H](NC(=O)c1cc(-c2ccc(NC(=O)Nc3ccc(Cl)cc3F)cc2)no1)C(=O)O`: the IC50 was 24 nM.
For `CC(C)[C@H](NC(=O)c1cc(-c2ccc(NC(=O)Nc3c(F)cccc3F)cc2)no1)C(=O)O`, the IC50 is 185 nM.
The same measure for `CC(C)[C@H](NC(=O)c1cc(-c2ccc(NC(=O)Nc3cc(F)ccc3F)cc2)no1)C(=O)O`: 141 nM; for `CC(C)[C@H](NC(=O)c1cc(-c2ccc(NC(=O)Nc3ccc(F)cc3F)cc2)no1)C(=O)O`: 62 nM; for `CC(C)[C@H](NC(=O)c1ncc(-c2ccc(NC(=O)Nc3ccccc3Cl)cc2)o1)C(=O)O`: 282 nM.
In the case of `CC(C)[C@H](NC(=O)c1cc(-c2ccc(NC(=O)Nc3ccccc3Cl)cc2)no1)C(=O)O`, the IC50 is 44 nM.
In the case of `CC(C)[C@H](NC(=O)c1nc(-c2ccc(NC(=O)Nc3ccc(F)cc3F)cc2)no1)C(=O)O`, the IC50 came to 259 nM.
Consider `Cc1ccc(NC(=O)Nc2ccc(-c3cc(C(=O)N[C@H](C(=O)O)C(C)C)on3)cc2)cc1F`, for which the IC50 was 178 nM.
On to `CC(C)[C@H](NC(=O)c1cc(-c2ccc(NC(=O)Nc3cc(F)cc(F)c3)cc2)no1)C(=O)O`, for which the IC50 was found to be 75 nM.
Then `Cc1ccccc1NC(=O)Nc1ccc(-c2cc(C(=O)N[C@H](C(=O)O)C(C)C)on2)cc1`, with 84 nM; and `CC(C)[C@H](NC(=O)c1cc(-c2ccc(Nc3nc4ccc(F)cc4s3)cc2)no1)C(=O)O`, with 120 nM; and `CC(C)[C@H](NC(=O)c1cc(-c2ccc(NC(=O)Nc3cccc(Cl)c3)cc2)no1)C(=O)O`, with 45 nM.
The same measure for `Cc1cc(C)cc(NC(=O)Nc2ccc(-c3cc(C(=O)N[C@H](C(=O)O)C(C)C)on3)cc2)c1`: 114 nM; for `Cc1cc(F)ccc1NC(=O)Nc1ccc(-c2cc(C(=O)N[C@H](C(=O)O)C(C)C)on2)cc1`: 90 nM; for `CC(C)[C@H](NC(=O)c1cc(-c2ccc(NC(=O)Nc3cccc(C(F)(F)F)c3)cc2)no1)C(=O)O`: 66 nM.
The same measure for `CC(C)[C@H](NC(=O)c1cc(-c2ccc(NC(=O)Nc3ccc(Cl)cc3)cc2)no1)C(=O)O`: 124 nM.
`CC(C)[C@H](NC(=O)c1cc(-c2ccc(NC(=O)Nc3ccc(F)c(F)c3)cc2)no1)C(=O)O`: the IC50 was found to be 75 nM.
Regarding `Cc1ccc(NC(=O)Nc2ccc(-c3cc(C(=O)N[C@H](C(=O)O)C(C)C)on3)cc2)cc1`, the IC50 came to 61 nM.
The same measure for `CC(C)[C@H](NC(=O)c1cc(-c2ccc(NC(=O)Nc3ccc(Cl)cc3Oc3ccccc3)cc2)no1)C(=O)O`: 86 nM; for `CC(C)[C@H](NC(=O)c1ncc(-c2ccc(NC(=O)Nc3ccc(Cl)cc3Oc3ccccc3)cc2)o1)C(=O)O`: 230 nM.
Take `CC(C)[C@H](NC(=O)c1ncc(-c2ccc(NC(=O)Nc3cccc(C(F)(F)F)c3)cc2)o1)C(=O)O`: the IC50 was found to be 458 nM.
For `CC(C)[C@H](NC(=O)c1cc(-c2ccc(NC(=O)Nc3ccc(F)cc3)cc2)no1)C(=O)O`, the IC50 came to 60 nM.
